According to patent US6974794B1, “Hemoglobin-antioxidant conjugates” (Hemosol LP, priority 1999, dated 2005):

Columns and labels:
erythrocytes = test: Hemolysis of erythrocytes mediated by peroxyl radicals (AAPH); protection of RBCs against lysis; type: cell-based; conditions: for AUC, % of control: relative to the corresponding control without Trolox, CO-ligated
Method: Blood was collected into heparinized tubes and erythrocytes were separated by centrifugation and washed 3 times with 10 volumes of PBS, pH 7.4. During the last washing, erythrocytes were centrifuged at 1000×g for 10 minutes to obtain a consistently packed cell preparation. The assay for hemolysis mediated by peroxyl radicals was conducted by a modified method of Miki et al.,(M. Miki, H. Tamai, M. Mino, Y. Yamamoto and E. Niki., Arch. Biochem. Biophys. 258:373-380 (1987)). Equal volumes of a 30% suspension of fresh erythrocytes in PBS pH 7.4, test sample, and 300 mM 2,2;-azo-bis(2-amidinopropane dihydrochloride) (AAPH, a radical generator) were combined in order. Mixtures were prepared under CO gas and test hemoglobin concentration in the RBC assay suspension was 12-13 mg/ml. Mixtures were held at 37° C., and aliquots were diluted 20-fold in PBS and centrifuged at 1000×g for 10 minutes. As a measure of Hb released due to RBC lysis, the absorbances of supernatants were measured at 540 nm after conversion of all Hb to CN-metHb according to the method of Tentori (Meth. Enzymology 75:707 (1981)). Supernatant Hb levels were corrected for Hb added in the test samples.
The results for two products are presented graphically in FIG. 1, a plot of relative RBC lysis against time for the various products. Products analyzed were prepared as described for reaction #6 (Hb-Trolox B) and reaction #7 (Hb-Trolox A) in Table 1 of Example 1. […] Relative protection was also determined by comparison of areas under the curves (AUC) obtained by plotting RBC lysate absorbance versus time. AUC is determined by the time of onset, rate, and overall extend of RBC lysis. Lower AUC values indicate greater protection of RBCs against lysis.
Using the method described in Example 2, the anti-oxidant activities of the two conjugates were measured. Samples were CO-ligated and concentration of the conjugates and controls in the RBC assay suspension was 12 mg/mL.
Using the method described in Example 1, the anti-oxidant activity of the polyOR-Hb-TX was measured. Products tested included oxygen and CO-ligated polyOR-Hb (no treatment with TX or EDC), CO-ligated product reserved prior to oxygenation as described above, and oxygenated product. All products were present in the RBC lysis assay suspension at 11.7 mg/mL.
Using the method described in Example 1, the antioxidant activities of the polyOR-Hb-TX products prepared under deoxy conditions (Example 8) and CO conditions (Example 6) were measured. Samples were CO-ligated and concentration of the conjugates and controls in the RBC assay suspension was 12 mg/mL. An equal concentration of polyOR-Hb, as well as two concentrations of Trolox alone representing 1× and 0.5× its solubility limit in the test solution, were evaluated.

conscious rat = test: Hemodynamic effect following 10% topload infusion in conscious rat; type: in vivo; conditions: for Pre-infusion HR / baseline MAP prior to infusion: conscious Sprague-Dawley rat, before infusion; for baseline MAP prior to infusion: four animals per group; for HR after infusion / MAP following infusion: 10% topload infusion of 7.7 g/dL solution in lactated Ringer's
Method: Male Sprague-Dawley rats (250-350 g) were anesthetized with isoflurane on the day of the experiment. The right femoral artery and vein were cannulated. After 1.5 hour recovery from surgery, conscious animals residing in a metabolic cages were infused with either of two solutions: oxygenated polyOR-TX prepared in Example 6 or polyOR-Hb (no TX-EDC treatment; both solutions were 7.7 g/dL in lactated Ringer's solution). Infusion volume was equal to 10% of the animal's estimated blood volume. Mean arterial blood pressure (MAP) and heart rate (HR) were recorded 30 minutes prior to infusion to establish baseline values, during infusion and for 2 hours following infusion (FIGS. 3 and 4). Four animals were tested in each of the two groups. The baseline MAP prior to infusion was 101±4 mm Hg (polyOR-Hb) and 110±3 mm Hg (polyOR-Hb-TX). […] Pre-infusion HR were 407±17 and 394±17 beats per minute (bpm) in the polyOR-Hb and polyOR-Hb-TX groups, respectively.

[1] = P50 measured with a Hemox-Analyzer; conditions: 37° C.
Method: Trolox was conjugated to polyOR-Hb under deoxy conditions to prepare a product with a high P50, more suitable for use as an HBOC. PolyOR-Hb and MES buffer were deoxygenated by standard means. 0.78 g Trolox was reacted with 0.60 g EDC in 4 mL of acetonitrile for 10-20 minutes at room temperature. This solution was added to 2.04 g polyOR-Hb in 200 mL 120 mM MES pH 7.0. Two identical additions were made after 4 and 21 hours. At 27 hours following the first addition, the reaction mixture was charged with CO gas, filtered, concentrated and dialyzed extensively against PBS.

[2] = Table 7, CO-ligated samples, 12 mg/mL in RBC assay suspension
[3] = Table 4, hemoglobin 0.20 mM (12-13 mg/ml) in RBC assay suspension, under CO, 37° C., bound Trolox 0.32 mM (A), 0.45 mM (B), lower AUC = greater protection
[4] = Table 8, 11.7 mg/mL in RBC lysis assay suspension

## 1× Control: control product: polyOR-Hb reacted with EDC alone, no Trolox added, single addition
erythrocytes; [2]
  AUC relative to AAPH control (%): 83%

## 1× TX-EDC (Reaction A): polyOR-Hb conjugated with Trolox by a single addition of Trolox/EDC
erythrocytes; [2]
  AUC relative to AAPH control (%): 27%
erythrocytes; 12 mg/mL
  AUC, % of control: 33%

## 3× Control: control product: polyOR-Hb reacted with EDC alone, no Trolox added, three additions
erythrocytes; [2]
  AUC relative to AAPH control (%): 69%

## 3× TX-EDC (Reaction B): polyOR-Hb conjugated with Trolox by three additions of Trolox/EDC
erythrocytes; 12 mg/mL
  AUC, % of control: 3%

## Cc1c(C)c2c(c(C)c1O)CCC(C)(C(=O)O)O2 (centres unmarked) [Free Trolox, 2,5,7,8-tetramethyl-2-carboxy-chroman-6-ol]
erythrocytes; Table 4, Trolox 0.50 mM, no hemoglobin
  AUC relative to AAPH control (%): 88%
erythrocytes; Table 9, Trolox alone 0.26 mM (0.5× its solubility limit)
  AUC relative to AAPH control (%): 87%
erythrocytes; Table 9, Trolox alone 0.52 mM (1× its solubility limit)
  AUC relative to AAPH control (%): 70%

## Free Hb (A): free (control) hemoglobin; product of the control reaction corresponding to Hb-Trolox A, no TX-EDC added
erythrocytes; [3]
  AUC relative to AAPH control (%): 39%

## Free Hb (B): free (control) hemoglobin; product of the control reaction corresponding to Hb-Trolox B, no TX-EDC added
erythrocytes; [3]
  AUC relative to AAPH control (%): 35%

## PolyOR-Hb (CO form): CO-ligated polyOR-Hb, no treatment with TX or EDC
erythrocytes; [4]
  AUC relative to AAPH control (%): 47%

## PolyOR-Hb (Oxy form): oxygen-ligated polyOR-Hb, no treatment with TX or EDC
erythrocytes; [4]
  AUC relative to AAPH control (%): 39%

## PolyOR-Hb-TX (CO form): CO-ligated product of Example 6 reserved prior to oxygenation
erythrocytes; [4]
  AUC relative to AAPH control (%): 6%

## PolyOR-Hb-TX (Oxy form): oxygenated product of Example 6
erythrocytes; [4]
  AUC relative to AAPH control (%): 15%

## PolyOR-Hb-TX (from Example 6): Trolox conjugate of o-raffinose polymerized hemoglobin, large scale, prepared under CO conditions
Conscious rat
  Pre-infusion HR: 394±17 bpm
  baseline MAP prior to infusion: 110±3 mm Hg
Conscious rat; conscious rat
  HR after infusion: 316±10 bpm
  MAP following infusion: 151±1 mm Hg
Conscious rat; conscious rat, 10% topload infusion, result in words
  Hemodynamic properties compared with polyOR-Hb: did not alter the hemodynamic properties
[1]
  P50: 16 mm Hg
erythrocytes; Table 9, CO form, 12 mg/mL
  AUC relative to AAPH control (%): 0%

## PolyOR-Hb-TX (from Example 8): Trolox conjugated to polyOR-Hb under deoxy conditions
[1]
  P50: 40 mm Hg
erythrocytes; Table 9, CO form, 12 mg/mL
  AUC relative to AAPH control (%): 3%

## PolyOR-Hb: o-raffinose cross-linked / polymerized hemoglobin, no treatment with TX or EDC [reference compound]
Conscious rat
  Pre-infusion HR: 407±17 bpm
  baseline MAP prior to infusion: 101±4 mm Hg
Conscious rat; conscious rat
  HR after infusion: 345±16 bpm
  MAP following infusion: 142±7 mm Hg
[1]
  P50: 41 mm Hg
erythrocytes; Table 9, CO form, 12 mg/mL
  AUC relative to AAPH control (%): 28%
